Reference: patent US10336762B2 (priority 2017, dated 2019)
Where two headings read alike, the source gives them in different places.

Assays:
[1] = molecular target: IRAK4 enzyme (Homo sapiens (Human), UniProt Q9NWZ3); test: biochemical; type: biochemical; settings: IRAK4 enzyme, 500 μM ATP
[2] = test system: TNFα; test: cells; type: cell-based, human; settings: Homo sapiens, Monocyte, LPS-stimulated human monocytes, read-out: EC50 TNF

IRAK4 enzyme, sequence (Q9NWZ3 whole entry): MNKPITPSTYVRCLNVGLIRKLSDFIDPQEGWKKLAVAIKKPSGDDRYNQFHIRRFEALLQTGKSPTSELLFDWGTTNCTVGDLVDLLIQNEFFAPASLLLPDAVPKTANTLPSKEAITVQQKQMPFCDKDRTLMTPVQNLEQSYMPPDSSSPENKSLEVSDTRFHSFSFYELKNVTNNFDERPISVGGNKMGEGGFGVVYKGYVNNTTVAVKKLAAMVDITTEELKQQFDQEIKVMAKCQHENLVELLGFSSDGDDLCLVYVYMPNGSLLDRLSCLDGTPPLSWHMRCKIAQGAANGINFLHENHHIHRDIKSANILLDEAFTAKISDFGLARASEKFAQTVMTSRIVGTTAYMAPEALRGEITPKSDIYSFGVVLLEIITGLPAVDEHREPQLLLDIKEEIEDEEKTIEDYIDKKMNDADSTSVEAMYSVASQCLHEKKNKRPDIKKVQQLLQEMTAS

SMILES | IC50 ([1]; TR-FRET) [µM] | EC50 ([2]; TNFα content) [µM] | EC50 ([2]; TNFα by TR-FRET) [µM] | IC50 ([1]; TR-FRET (HTRF)) [µM]
CC(=O)NC12CCC(Nc3cc(-c4ccc5cc(C#N)cnn45)ncc3C(=O)NC[C@@H](F)C(C)(C)O)(CC1)CC2 [Example 317, (R)-4-((4-acetamido-bicyclo[2.2.2]octan-1-yl)amino)-6-(3-cyano-pyrrolo[1,2-b]pyridazin-7-yl)-N-(2-fluoro-3-hydroxy-3-methylbutyl) nicotinamide] | < 0.001 | 0.011 | – | –
CC(C)(O)[C@H](F)CNC(=O)c1cnc(-c2ccc3cc(C#N)cnn23)cc1NC1CC2(C1)CN(CC(F)(F)F)C2 [Example 898, (R)-6-(3-cyanopyrrolo[1,2-b]pyridazin-7-yl)-N-(2-fluoro-3-hydroxy-3-methylbutyl)-4-((2-(2,2,2-trifluoroethyl)-2-aza-spiro[3.3]heptan-6-yl)amino)nicotinamide] | < 0.001 | – | 0.118 | –
CN1CCN(C(=O)C23CCC(Nc4cc(-c5ccc6cc(C#N)cnn56)ncc4C(=O)NC[C@@H](F)C(C)(C)O)(CC2)CC3)CC1 [Example 802, (R)-6-(3-cyanopyrrolo[1,2-b]pyridazin-7-yl)-N-(2-fluoro-3-hydroxy-3-methylbutyl)-4-((4-(4-methylpiperazine-1-carbonyl)bicyclo[2.2.2]octan-1-yl)amino) nicotinamide] | 0.002 | – | 0.157 | –
CCNC(=O)C12CCC(Nc3cc(-c4ccc5cc(C#N)cnn45)ncc3C(=O)NC[C@@H](F)C(C)(C)O)(CC1)CC2 [Example 407, (R)-6-(3-cyanopyrrolo[1,2-b]pyridazin-7-yl)-4-((4-(ethyl-carbamoyl)bicyclo[2.2.2]octan-1-yl)amino)-N-(2-fluoro-3-hydroxy-3-methylbutyl)nicotinamide] | – | 0.02 | – | 0.002
N#Cc1cnn2c(-c3cc(NC45CCC(O)(CC4)CC5)c(C(=O)NCC(=O)N4CC[C@@H](O)C4)cn3)ccc2c1 [Example 953, (R)-6-(3-cyanopyrrolo[1,2-b]pyridazin-7-yl)-4-((4-hydroxybicyclo[2.2.2]octan-1-yl)amino)-N-(2-(3-hydroxypyrrolidin-1-yl)-2-oxoethyl) nicotinamide] | < 0.001 | – | 0.24 | –
CC(C)CC(=O)NC[C@H]1C[C@H](Nc2cc(-c3ccc4cc(C#N)cnn34)ncc2C(=O)NC[C@@H](F)C(C)(C)O)C1 [Example 826, 6-(3-cyanopyrrolo[1,2-b]pyridazin-7-yl)-N-((R)-2-fluoro-3-hydroxy-3-methylbutyl)-4-(((1r,3R)-3-((3-methylbutanamido)methyl)cyclobutyl)amino)nicotinamide] | < 0.001 | – | 0.032 | –
COC(=O)N(C)C[C@H]1C[C@H](Nc2cc(-c3ccc4cc(C#N)cnn34)ncc2C(=O)NC[C@@H](F)C(C)(C)O)C1 [Example 620, Methyl (((1R,3r)-3-((2-(3-cyanopyrrolo[1,2-b]pyridazin-7-yl)-5-(((R)-2-fluoro-3-hydroxy-3-methylbutyl)carbamoyl)pyridin-4-yl)amino)cyclobutyl)methyl)(methyl)carbamate] | – | 0.054 | – | 0.001
CC(C)(O)[C@H](F)CNC(=O)c1cnc(-c2ccc3cc(C#N)cnn23)cc1Nc1ccc(-n2cncn2)cc1 [Example 762, (R)-4-((4-(1H-1,2,4-triazol-1-yl)phenyl)amino)-6-(3-cyanopyrrolo[1,2-b]pyridazin-7-yl)-N-(2-fluoro-3-hydroxy-3-methylbutyl)nicotinamide] | – | 0.007 | – | < 0.001
N#Cc1cnn2c(-c3cc(NC45CCC(O)(CC4)CC5)c(C(=O)NCc4ccccn4)cn3)ccc2c1 [Example 930, 6-(3-cyanopyrrolo[1,2-b]pyridazin-7-yl)-4-((4-hydroxybicyclo[2.2.2]octan-1-yl)amino)-N-(pyridin-2-ylmethyl)nicotinamide] | 0.002 | – | 0.147 | –
CC(C)Nc1cc(-c2ccc3cccnn23)ncc1C(=O)NC[C@@H](F)C(C)(C)O [Example 817, (R)-N-(2-fluoro-3-hydroxy-3-methylbutyl)-4-(isopropyl-amino)-6-(pyrrolo[1,2-b]pyridazin-7-yl)nicotinamide] | 0.006 | – | 0.165 | –
CC(C)(O)[C@H](F)CNC(=O)c1cnc(-c2ccc3cc(C#N)cnn23)cc1Nc1cnc(C#N)nc1 [Example 596, (R)-4-((2-cyano-pyrimidin-5-yl)amino)-6-(3-cyanopyrrolo[1,2-b]pyridazin-7-yl)-N-(2-fluoro-3-hydroxy-3-methylbutyl) nicotinamide] | – | > 10 | – | 0.003
COC(=O)N1CC(n2cc(Nc3cc(-c4ccc5cc(C#N)cnn45)ncc3C(=O)NC[C@@H](F)C(C)(C)O)cn2)C1 [Example 231, (R)-methyl 3-(4-((2-(3-cyanopyrrolo[1,2-b]pyridazin-7-yl)-5-((2-fluoro-3-hydroxy-3-methylbutyl)carbamoyl)pyridin-4-yl)amino)-1H-pyrazol-1-yl)azetidine-1-carboxylate] | < 0.001 | 0.061 | – | –
CC(C)(O)[C@H](F)CNC(=O)c1cnc(-c2ccc3cc(C#N)cnn23)cc1Nc1cnc(Cl)cn1 [Example 970, (R)-4-((5-chloropyrazin-2-yl)amino)-6-(3-cyano-pyrrolo[1,2-b]pyridazin-7-yl)-N-(2-fluoro-3-hydroxy-3-methylbutyl)nicotinamide] | < 0.001 | – | 0.057 | –
CC(C)(O)[C@H](F)CNC(=O)c1cnc(-c2ccc3cc(C#N)cnn23)cc1Nc1ccn2ccnc2c1 [Example 570, (R)-6-(3-cyanopyrrolo[1,2-b]pyridazin-7-yl)-N-(2-fluoro-3-hydroxy-3-methyl-butyl)-4-(imidazo[1,2-a]pyridin-7-ylamino) nicotinamide] | – | 0.08 | – | < 0.001
CC(C)(O)[C@H](F)CNC(=O)c1cnc(-c2ccc3cc(C#N)cnn23)cc1Nc1ccncc1 [Example 593, (R)-6-(3-cyano-pyrrolo[1,2-b]pyridazin-7-yl)-N-(2-fluoro-3-hydroxy-3-methylbutyl)-4-(pyridin-4-ylamino) nicotinamide] | – | 0.143 | – | 0.002
COCCNC(=O)CNC(=O)c1cnc(-c2ccc3cc(C#N)cnn23)cc1NC12CCC(O)(CC1)CC2 [Example 786, 6-(3-cyanopyrrolo[1,2-b]pyridazin-7-yl)-4-((4-hydroxybicyclo[2.2.2]octan-1-yl)amino)-N-(2-((2-methoxyethyl)amino)-2-oxoethyl)nicotinamide] | – | 0.323 | – | 0.002
CC(C)(O)[C@H](F)CNC(=O)c1cnc(-c2ccc3cc(C#N)cnn23)cc1NC12CCC(C(N)=O)(CC1)CC2 [Example 398, (R)-4-((4-carbamoylbicyclo[2.2.2]octan-1-yl)amino)-6-(3-cyanopyrrolo[1,2-b]pyridazin-7-yl)-N-(2-fluoro-3-hydroxy-3-methyl-butyl)nicotinamide] | – | 0.017 | – | < 0.001
CC(C)(O)[C@H](F)CNC(=O)c1cnc(-c2ccc3cc(C#N)cnn23)cc1N[C@H]1C[C@@](C)(O)C1 [Example 450, 6-(3-cyanopyrrolo[1,2-b]pyridazin-7-yl)-N-((R)-2-fluoro-3-hydroxy-3-methylbutyl)-4-(((1s,3S)-3-hydroxy-3-methylcyclo-butyl)amino)nicotinamide] | – | 0.044 | – | < 0.001
CN1CCC(Nc2cc(-c3ccc4cc(C#N)cnn34)ncc2C(=O)NC[C@@H](F)C(C)(C)O)CC1 [Example 114, (R)-6-(3-cyanopyrrolo[1,2-b]pyridazin-7-yl)-N-(2-fluoro-3-hydroxy-3-methylbutyl)-4-((1-methylpiperidin-4-yl)amino)nicotinamide] | 0.004 | 0.177 | – | –
CC(C)(O)[C@H](F)CNC(=O)c1cnc(-c2ccc3cc(C#N)cnn23)cc1Nc1cnn(C(F)F)c1 [Example 48, (R)-6-(3-cyanopyrrolo[1,2-b]pyridazin-7-yl)-4-((1-(difluoromethyl)-1H-pyrazol-4-yl)amino)-N-(2-fluoro-3-hydroxy-3-methylbutyl)nicotinamide] | < 0.001 | 0.028 | – | –
CC(C)(O)Cn1cc(Nc2cc(-c3ccc4cc(C#N)cnn34)ncc2C(=O)NC[C@@H](F)C(C)(C)O)cn1 [Example 138, (R)-6-(3-cyanopyrrolo[1,2-b]pyridazin-7-yl)-N-(2-fluoro-3-hydroxy-3-methylbutyl)-4-((1-(2-hydroxy-2-methylpropyl)-1H-pyrazol-4-yl)amino)nicotinamide] | 0.001 | 0.117 | – | –
Cc1cc(Nc2cc(-c3ccc4cc(C#N)cnn34)ncc2C(=O)NC[C@@H](F)C(C)(C)O)cnc1F [Example 187, (R)-6-(3-cyanopyrrolo[1,2-b]pyridazin-7-yl)-N-(2-fluoro-3-hydroxy-3-methylbutyl)-4-((6-fluoro-5-methylpyridin-3-yl)amino) nicotinamide] | 0.001 | 0.152 | – | –
CC(C)Nc1cc(-c2ccc3cc(C#N)cnn23)ncc1C(=O)N[C@@H]1CC[C@@H](O)C1 [Example 188, 6-(3-cyanopyrrolo[1,2-b]pyridazin-7-yl)-N-((1R,3R)-3-hydroxycyclopentyl)-4-(isopropylamino) nicotinamide] | 0.008 | 0.275 | – | –
CC(C)(O)[C@H](F)CNC(=O)c1cnc(-c2ccc3cc(C#N)cnn23)cc1Nc1cccc(C(N)=O)c1 [Example 383, (R)-4-((3-carbamoyl-phenyl)amino)-6-(3-cyanopyrrolo[1,2-b]pyridazin-7-yl)-N-(2-fluoro-3-hydroxy-3-methylbutyl)nicotinamide] | < 0.001 | 0.144 | – | –
COC(=O)NC(C)(C)CCNc1cc(-c2ccc3cc(C#N)cnn23)ncc1C(=O)NC[C@@H](F)C(C)(C)O [Example 727, (R)-methyl (4-((2-(3-cyanopyrrolo[1,2-b]pyridazin-7-yl)-5-((2-fluoro-3-hydroxy-3-methylbutyl)carbamoyl)pyridin-4-yl)amino)-2-methylbutan-2-yl)carbamate] | – | 0.203 | – | 0.003
CC(C)(O)[C@H](F)CNC(=O)c1cnc(-c2ccc3cc(C#N)cnn23)cc1NC1CCC1 [Example 117, (R)-6-(3-cyanopyrrolo[1,2-b]pyridazin-7-yl)-4-(cyclobutyl-amino)-N-(2-fluoro-3-hydroxy-3-methylbutyl) nicotinamide] | < 0.001 | 0.047 | – | –
